Source: PubChem BioAssay (NCI)
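48-hour exposure; five concentrations; linearly interpolated endpoints. GI50 marks 50% less growth. TGI: concentration producing complete growth inhibition.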

Experiments:
Experiment in all cases: growth of human tumour cells (NCI), 48 h
MCF7 breast = test system: MCF7 breast
UACC-62 melanoma = test system: UACC-62 melanoma
OVCAR-3 ovarian = test system: OVCAR-3 ovarian
COLO 205 colon = test system: COLO 205 colon
CAKI-1 renal = test system: CAKI-1 renal
NCI-H226 lung = test system: NCI-H226 lung
SR leukemia = test system: SR leukemia
SNB-19 CNS = test system: SNB-19 CNS
SK-MEL-28 melanoma = test system: SK-MEL-28 melanoma
MALME-3M melanoma = test system: MALME-3M melanoma
NCI-H522 lung = test system: NCI-H522 lung
PC-3 prostate = test system: PC-3 prostate
HT29 colon = test system: HT29 colon
UO-31 renal = test system: UO-31 renal
SN12C renal = test system: SN12C renal
SNB-75 CNS = test system: SNB-75 CNS
OVCAR-4 ovarian = test system: OVCAR-4 ovarian
ACHN renal = test system: ACHN renal
UACC-257 melanoma = test system: UACC-257 melanoma
HCT-15 colon = test system: HCT-15 colon
EKVX NSCLC = test system: EKVX NSCLC
RPMI-8226 leukemia = test system: RPMI-8226 leukemia
SK-OV-3 ovarian = test system: SK-OV-3 ovarian
T-47D breast = test system: T-47D breast
HL-60(TB) leukemia = test system: HL-60(TB) leukemia
RXF 393 renal = test system: RXF 393 renal
KM12 colon = test system: KM12 colon
U251 CNS = test system: U251 CNS
LOX IMVI melanoma = test system: LOX IMVI melanoma
SW-620 colon = test system: SW-620 colon
CCRF-CEM leukemia = test system: CCRF-CEM leukemia
OVCAR-5 ovarian = test system: OVCAR-5 ovarian
K-562 leukemia = test system: K-562 leukemia
NCI-H460 lung = test system: NCI-H460 lung
DU-145 prostate = test system: DU-145 prostate
MDA-MB-231 breast = test system: MDA-MB-231 breast
OVCAR-8 ovarian = test system: OVCAR-8 ovarian
786-0 renal = test system: 786-0 renal
MOLT-4 leukemia = test system: MOLT-4 leukemia
SK-MEL-5 melanoma = test system: SK-MEL-5 melanoma
SF-295 CNS = test system: SF-295 CNS
SF-268 CNS = test system: SF-268 CNS
HCC-2998 colon = test system: HCC-2998 colon
M14 melanoma = test system: M14 melanoma
HOP-92 NSCLC = test system: HOP-92 NSCLC
NCI/ADR-RES ovarian = test system: NCI/ADR-RES ovarian
SK-MEL-2 melanoma = test system: SK-MEL-2 melanoma
HOP-62 NSCLC = test system: HOP-62 NSCLC
SF-539 CNS = test system: SF-539 CNS
BT-549 breast = test system: BT-549 breast
MDA-MB-435 = test system: MDA-MB-435
HS 578T breast = test system: HS 578T breast
NCI-H23 lung = test system: NCI-H23 lung
IGROV1 ovarian = test system: IGROV1 ovarian
TK-10 renal = test system: TK-10 renal
HCT-116 colon = test system: HCT-116 colon
A549 NSCLC = test system: A549 NSCLC

## COc1cnc2c(c1)C(=O)c1c-2n(CCCNC(C)C)c(=O)c2cc([N+](=O)[O-])ccc12
MCF7 breast
  GI50: 11.5 nM
  TGI: 1070 nM
UACC-62 melanoma
  GI50: 19.1 nM
  TGI: 123 nM
OVCAR-3 ovarian
  GI50: 82.4 nM
  TGI: 247 nM
COLO 205 colon
  GI50: 29.3 nM
  TGI: 225 nM
CAKI-1 renal
  GI50: 31.4 nM
  TGI: 191 nM
NCI-H226 lung
  GI50: 65.1 nM
  TGI: 798 nM
SR leukemia
  TGI: 226 nM
SNB-19 CNS
  GI50: 42.3 nM
  TGI: 896 nM
SK-MEL-28 melanoma
  GI50: 121 nM
  TGI: 351 nM
MALME-3M melanoma
  GI50: 118 nM
  TGI: 356 nM
NCI-H522 lung
  GI50: 23.3 nM
  TGI: 158 nM
PC-3 prostate
  GI50: 211 nM
  TGI: 3070 nM
HT29 colon
  GI50: 36.4 nM
  TGI: 1010 nM
UO-31 renal
  GI50: 24.3 nM
  TGI: 135 nM
SN12C renal
  GI50: 39.3 nM
  TGI: 438 nM
SNB-75 CNS
  GI50: 69.6 nM
  TGI: 480 nM
OVCAR-4 ovarian
  GI50: 179 nM
  TGI: 807 nM
ACHN renal
  GI50: 26.7 nM
  TGI: 121 nM
UACC-257 melanoma
  GI50: 195 nM
  TGI: 1440 nM
HCT-15 colon
  GI50: 124 nM
  TGI: 402 nM
EKVX NSCLC
  GI50: 134 nM
  TGI: 706 nM
RPMI-8226 leukemia
  GI50: 48.7 nM
  TGI: 738 nM
SK-OV-3 ovarian
  GI50: 40.9 nM
  TGI: 201 nM
T-47D breast
  GI50: 39.3 nM
  TGI: 1140 nM
HL-60(TB) leukemia
  GI50: 33.6 nM
  TGI: 111 nM
RXF 393 renal
  GI50: 56.2 nM
  TGI: 1380 nM
KM12 colon
  GI50: 221 nM
  TGI: 981 nM
U251 CNS
  GI50: 30.3 nM
  TGI: 158 nM
LOX IMVI melanoma
  GI50: 18.9 nM
  TGI: 104 nM
SW-620 colon
  GI50: 39.3 nM
  TGI: 643 nM
CCRF-CEM leukemia
  GI50: 29 nM
  TGI: 658 nM
OVCAR-5 ovarian
  GI50: 155 nM
  TGI: 624 nM
K-562 leukemia
  GI50: 44.3 nM
  TGI: 485 nM
NCI-H460 lung
  GI50: 19.1 nM
  TGI: 126 nM
DU-145 prostate
  GI50: 50.2 nM
  TGI: 403 nM
MDA-MB-231 breast
  GI50: 157 nM
  TGI: 438 nM
OVCAR-8 ovarian
  GI50: 46.8 nM
  TGI: 541 nM
786-0 renal
  GI50: 35.1 nM
  TGI: 156 nM
MOLT-4 leukemia
  GI50: 22.3 nM
  TGI: 94.1 nM
SK-MEL-5 melanoma
  GI50: 46.1 nM
  TGI: 177 nM
SF-295 CNS
  GI50: 30.9 nM
  TGI: 221 nM
SF-268 CNS
  GI50: 48.8 nM
  TGI: 1420 nM
HCC-2998 colon
  GI50: 109 nM
  TGI: 269 nM
M14 melanoma
  GI50: 34.7 nM
  TGI: 135 nM
HOP-92 NSCLC
  GI50: 1090 nM
  TGI: 2820 nM
NCI/ADR-RES ovarian
  GI50: 34.3 nM
  TGI: 267 nM
SK-MEL-2 melanoma
  GI50: 195 nM
  TGI: 406 nM
HOP-62 NSCLC
  GI50: 85.3 nM
  TGI: 340 nM
SF-539 CNS
  GI50: 51.9 nM
  TGI: 204 nM
BT-549 breast
  GI50: 107 nM
  TGI: 314 nM
MDA-MB-435
  GI50: 109 nM
  TGI: 261 nM
HS 578T breast
  GI50: 938 nM
  TGI: 3240 nM
NCI-H23 lung
  GI50: 40.1 nM
  TGI: 285 nM
IGROV1 ovarian
  GI50: 115 nM
  TGI: 1430 nM
TK-10 renal
  GI50: 134 nM
  TGI: 318 nM

## CCOC(=O)N1C=CC(=C2C(=C3C=CN(C(=O)OCC)C=C3)C(=C3C=CN(C(=O)OCC)C=C3)C2=C2C=CN(C(=O)OCC)C=C2)C=C1
MCF7 breast
  TGI: > 100000 nM
UACC-62 melanoma
  TGI: 45000 nM
OVCAR-3 ovarian
  TGI: 81100 nM
COLO 205 colon
  TGI: > 100000 nM
CAKI-1 renal
  TGI: 50600 nM
NCI-H226 lung
  TGI: 71000 nM
SR leukemia
  TGI: 26300 nM
SNB-19 CNS
  TGI: > 100000 nM
SK-MEL-28 melanoma
  TGI: > 100000 nM
MALME-3M melanoma
  TGI: 64000 nM
NCI-H522 lung
  TGI: 65400 nM
PC-3 prostate
  TGI: 91700 nM
HT29 colon
  TGI: > 100000 nM
UO-31 renal
  TGI: 38500 nM
SN12C renal
  TGI: 92400 nM
SNB-75 CNS
  TGI: > 100000 nM
OVCAR-4 ovarian
  TGI: > 100000 nM
ACHN renal
  TGI: 38100 nM
UACC-257 melanoma
  TGI: > 100000 nM
HCT-15 colon
  TGI: 44100 nM
EKVX NSCLC
  TGI: > 100000 nM
SK-OV-3 ovarian
  TGI: > 100000 nM
T-47D breast
  TGI: > 100000 nM
HL-60(TB) leukemia
  TGI: > 100000 nM
RXF 393 renal
  TGI: > 100000 nM
KM12 colon
  TGI: > 100000 nM
U251 CNS
  TGI: 91700 nM
LOX IMVI melanoma
  TGI: 45800 nM
SW-620 colon
  TGI: > 100000 nM
OVCAR-5 ovarian
  TGI: > 100000 nM
K-562 leukemia
  TGI: 71400 nM
NCI-H460 lung
  TGI: > 100000 nM
DU-145 prostate
  TGI: > 100000 nM
MDA-MB-231 breast
  TGI: 70500 nM
OVCAR-8 ovarian
  TGI: 71500 nM
786-0 renal
  TGI: > 100000 nM
MOLT-4 leukemia
  TGI: 45100 nM
HCT-116 colon
  TGI: 56100 nM
SK-MEL-5 melanoma
  TGI: > 100000 nM
SF-295 CNS
  TGI: 92300 nM
SF-268 CNS
  TGI: > 100000 nM
A549 NSCLC
  TGI: > 100000 nM
M14 melanoma
  TGI: > 100000 nM
HOP-92 NSCLC
  TGI: 33900 nM
NCI/ADR-RES ovarian
  TGI: > 100000 nM
SK-MEL-2 melanoma
  TGI: > 100000 nM
HOP-62 NSCLC
  TGI: > 100000 nM
SF-539 CNS
  TGI: > 100000 nM
BT-549 breast
  TGI: > 100000 nM
MDA-MB-435
  TGI: 98800 nM
HS 578T breast
  TGI: 85600 nM
NCI-H23 lung
  TGI: > 100000 nM
IGROV1 ovarian
  TGI: 85300 nM
TK-10 renal
  TGI: 81600 nM
